Laboratory results published in US9861116B2, “Pet food compositions for inducing a satiety response” (Hill's Pet Nutrition, Inc., priority 2010, dated 2018).

How the values were obtained:
[1] = system: NPY; experiment: Affymetrix feline GeneChip gene expression analysis, NPY; type: cell-based; details: in two cell lines tested, amount tested 0.003 mg/mL, 0.03 mg/mL, treatment intensity/control intensity
Protocol: (§1) Gene expression was analyzed using proprietary feline GeneChip® Arrays prepared by Affymetrix, Inc., Santa Clara, Calif. 95051. Total RNA is reverse transcribed into cDNA. The cDNA is used to generate cRNA which is fragmented and used as probes for GeneChip hybridization. The gene chip is washed and the hybridization signal is measured with an Affymetrix laser scanner. The hybridization data is then validated and normalized for further analysis.
(§2) Materials: Affymetrix provided most of the reagents and kit. Other reagents listed in the Affymetrix Manual but not supplied in the kit were obtained separately. Refer to GeneChip Expression Analysis Technical Manual (701021 Rev.4) for the details.
(§3) Equipment. […]
(§4) Affymetrix gene chips are used to determine the effect of various test substances or ingredients on gene expression in four feline cell lines and appropriate controls. […] Gene expression was measured for the treatment cell lines and controls. The gene expression data was determined to be either “up” or “down”-regulated for any given treatment. The decision on whether a gene is “up” or “down” is based on the fold change, which is calculated as treatment intensity/control intensity for each individual probe.

[2] = system: LEPR; experiment: Affymetrix feline GeneChip gene expression analysis, LEPR; type: cell-based; details: in all cell lines tested (CCL-150, CCL-176, CRL-2032, CCL-94); amount tested 0.005 mg/mL, 0.05 mg/mL; treatment intensity/control intensity
Protocol: as §1, §2, §3, §4

SMILES	Fold Change (gene expression, NPY) [1]	Fold Change (gene expression, LEPR) [2]
CC1=C(/C=C/C(C)=C/C=C/C(C)=C/C=C/C=C(C)/C=C/C=C(C)/C=C/C2=C(C)CCCC2(C)C)C(C)(C)CCC1 [Beta-Carotene]	−1.75 (in two cell	–
Oc1ccc(C=Cc2cc(O)cc(O)c2)cc1 [Resveratrol]	–	1.96 (in all cell lines
